{"source": "patent US6008356A", "about": "“Pharmaceutically available protoberberine salts derivatives, and protoberberine salts derivatives, and protoberberine derivatives and salts thereof” (priority 1998, dated 1999)", "key": {"C. albicans OY 003": {"test_system": "C. albicans OY 003", "test": "MIC", "type": "cell-based, Candida albicans", "conditions": "Candida albicans, OY003"}, "C. albicans OY 019": {"test_system": "C. albicans OY 019", "test": "MIC", "type": "cell-based, Candida albicans", "conditions": "Candida albicans, OY019"}, "C. albicans IFO 1385": {"test_system": "C. albicans IFO 1385", "test": "MIC", "type": "cell-based, Candida albicans", "conditions": "Candida albicans, IFO1385"}, "C. albicans ATCC 28838": {"test_system": "C. albicans ATCC 28838", "test": "MIC", "type": "cell-based, Candida albicans", "conditions": "Candida albicans, ATCC28838"}, "C. albicans ATCC 11651": {"test_system": "C. albicans ATCC 11651", "test": "MIC", "type": "cell-based, Candida albicans", "conditions": "Candida albicans, ATCC11651"}, "E. floccosum": {"test_system": "E. floccosum", "test": "MIC", "type": "cell-based, Epidermophyton floccosum", "conditions": "Epidermophyton floccosum"}, "C. albicans KCTC 1940": {"test_system": "C. albicans KCTC 1940", "test": "MIC", "type": "cell-based, Candida albicans", "conditions": "Candida albicans, KCTC1940"}, "Epidermophyton floccosum": {"test_system": "Epidermophyton floccosum", "test": "Antifungal efficacy of creamy formulation against local fungal skin infection", "type": "in vivo, mouse (SKH/1, hairless, male)", "conditions": "topical", "protocol": "Specific pathogen free SKH/1 male mouse(Hairless) of which weight is 30-35 g and age is 5 weeks, was reared with sterilized water and feed for 12 night/day in the condition of 21-23° C. and of 50% relative humidity. Five mice were allocated by each group. After skin infection, each mouse was taken in separate cage. The strain of microorganism for infection(Epidermophyton floccosum) was cultivated on a flat medium of SDA(Sabouraud Dextrose Agar) for 5-7 days and after confirmation of macrocomidia, 3 ml of RPMI (Rosewell Park Memorial Institute) 1640 media per each flat medium was added thereto and then scraped well using loop to remove hyphae from media. The floating liquid was suspended briefly and then diluted with RPMI 1640 media to adjust the concentration of hyphae to 2×10^6 CFU/ml. Mouse was anesthetized and marked on back site(lumbosacral area) in a shape of circle of which diameter is 1.5 cm. Then, the inner part of marked skin was scratched with sand paper. The scratched part was covered with a filter paper to preserve inoculated microorganism for a long time and thereby stimulating the skin continuously. 0.2 ml of fungus solution of which concentration is adjusted as described above, was inoculated between the skin and filter paper. 5 Days after the inoculation, the filter paper was removed and the infection of skin was examined. The test formulations, 0.5% creamy formulations of the compounds Nos. 62 and 85, 1.0% creamy formulation of Terbinafine(Lamisile cream) and a placebo was applied on the infected areas in a same amount once a day for 5 days. The clinical evaluation on the change of the infected area in 5 days after the inoculation was performed and expressed numerically from 0 to 4. The daily change of the infected area was checked every day. The result of each group was compared with each other.\n1: Mild erythema or small number of skin eruption\n2: Well-demarcated erythema with scales or mild skin eruption of infected area\n3: Wide area of marked skin eruption, scales, swelling or severe skin eruption with partial swelling and scales\n4: The same as those of control, or severe skin eruption in entire lesion\nThe result was calculated as follows;\nT: Average score of clinical evaluation in drug treated area\nK: Average score of clinical evaluation in placebo control group\nMoreover, the antifungal efficacies of the 0.5% creamy formulation of the compounds Nos. 29, 35, 60, 62, 63 and 85, and 1% creamy formulation of Terbinafme (Lamisil cream), which are measured by applying the above formulations on the skin infected with Epidermophyton floccosum of mouse which is the standard animal for the test of local fungal skin infection, i.e, Specific Pathogen Free SKH/1, are described in the following Table 4."}, "C. albicans ATCC 10231": {"test_system": "C. albicans ATCC 10231", "test": "MIC", "type": "cell-based", "conditions": "Candida albicans, ATCC10231"}, "C. glulliermendi": {"test_system": "C. glulliermendi", "test": "MIC", "type": "cell-based"}, "C. glabrata": {"test_system": "C. glabrata", "test": "MIC", "type": "cell-based", "conditions": "Nakaseomyces glabratus"}, "C. krusei": {"test_system": "C. krusei", "test": "MIC", "type": "cell-based", "conditions": "Pichia kudriavzevii"}, "C. parapsilosis": {"test_system": "C. parapsilosis", "test": "MIC", "type": "cell-based", "conditions": "Lodderomyces parapsilosis"}, "C. albicans U.K.": {"test_system": "C. albicans U.K.", "test": "MIC", "type": "cell-based", "conditions": "Candida albicans"}, "[1]": {"conditions": "C. albicans OY 003, read-out: MIC"}, "[2]": {"conditions": "C. albicans OY 019, read-out: MIC"}, "[3]": {"conditions": "C. albicans IFO 1385, read-out: MIC"}, "[4]": {"conditions": "C. albicans ATCC 28838, read-out: MIC"}, "[5]": {"conditions": "C. albicans ATCC 11651, read-out: MIC"}, "[6]": {"conditions": "C. albicans KCTC 1940, read-out: MIC"}}, "note": "Like-named read-outs stand apart in the source and are kept apart here."}
{"molecule": "CCC(C)n1ncn(-c2ccc(N3CCN(c4ccc(OCC5COC(Cn6cncn6)(c6ccc(Cl)cc6Cl)O5)cc4)CC3)cc2)c1=O", "note": "(stereo not drawn) [Itraconazole, reference compound]", "values": [{"measurement": "MIC", "setting": "C. albicans OY 003", "value": "> 100", "unit": "µg/mL"}, {"measurement": "MIC", "setting": "C. albicans OY 019", "value": "> 100", "unit": "µg/mL"}, {"measurement": "MIC", "setting": "C. albicans IFO 1385", "value": "> 100", "unit": "µg/mL"}, {"measurement": "MIC", "setting": "C. albicans ATCC 28838", "value": "> 100", "unit": "µg/mL"}, {"measurement": "MIC", "setting": "C. albicans ATCC 11651", "value": "> 100", "unit": "µg/mL"}, {"measurement": "MIC", "setting": "E. floccosum", "value": 50, "unit": "µg/mL"}, {"measurement": "MIC", "setting": "C. albicans KCTC 1940", "value": "> 100", "unit": "µg/mL"}]}
{"molecule": "CN(C/C=C/C#CC(C)(C)C)Cc1cccc2ccccc12", "note": "[Terbinabin, Terbinafine, reference compound]", "values": [{"measurement": "Efficacy (%) 0 day later", "setting": "Epidermophyton floccosum; 1.0% cream", "value": 0, "unit": "%"}, {"measurement": "Efficacy (%) 1 day later", "setting": "Epidermophyton floccosum; 1.0% cream", "value": 40.0, "unit": "%"}, {"measurement": "Efficacy (%) 2 day later", "setting": "Epidermophyton floccosum; 1.0% cream", "value": 57.9, "unit": "%"}, {"measurement": "Efficacy (%) 3 day later", "setting": "Epidermophyton floccosum; 1.0% cream", "value": 68.4, "unit": "%"}, {"measurement": "Efficacy (%) 4 day later", "setting": "Epidermophyton floccosum; 1.0% cream", "value": 70.2, "unit": "%"}, {"measurement": "Efficacy (%) 5 day later", "setting": "Epidermophyton floccosum; 1.0% cream", "value": 71.4, "unit": "%"}, {"measurement": "Efficacy (%) 6 day later", "setting": "Epidermophyton floccosum; 1.0% cream", "value": 73.4, "unit": "%"}, {"measurement": "Efficacy (%) 7 day later", "setting": "Epidermophyton floccosum; 1.0% cream", "value": 75.7, "unit": "%"}]}
{"molecule": "C=Cc1ccc(Cc2c3[n+](cc4c(OC)c(OC)ccc24)CCc2cc4c(cc2-3)OCO4)cc1", "note": "[compound 60, 13-(4-vinylbenzyl)berberine chloride]", "values": [{"measurement": "Efficacy (%) 0 day later", "setting": "Epidermophyton floccosum; 0.5% cream", "value": 0, "unit": "%"}, {"measurement": "Efficacy (%) 1 day later", "setting": "Epidermophyton floccosum; 0.5% cream", "value": 20.0, "unit": "%"}, {"measurement": "Efficacy (%) 2 day later", "setting": "Epidermophyton floccosum; 0.5% cream", "value": 32.0, "unit": "%"}, {"measurement": "Efficacy (%) 3 day later", "setting": "Epidermophyton floccosum; 0.5% cream", "value": 36.0, "unit": "%"}, {"measurement": "Efficacy (%) 4 day later", "setting": "Epidermophyton floccosum; 0.5% cream", "value": 48.6, "unit": "%"}, {"measurement": "Efficacy (%) 5 day later", "setting": "Epidermophyton floccosum; 0.5% cream", "value": 51.5, "unit": "%"}, {"measurement": "Efficacy (%) 6 day later", "setting": "Epidermophyton floccosum; 0.5% cream", "value": 58.6, "unit": "%"}, {"measurement": "Efficacy (%) 7 day later", "setting": "Epidermophyton floccosum; 0.5% cream", "value": 60.5, "unit": "%"}, {"measurement": "MIC", "setting": "C. albicans OY 003; [1]", "value": 6.25, "unit": "µg/mL"}, {"measurement": "MIC", "setting": "C. albicans OY 019; [2]", "value": 12.5, "unit": "µg/mL"}, {"measurement": "MIC", "setting": "C. albicans IFO 1385; [3]", "value": 25, "unit": "µg/mL"}, {"measurement": "MIC", "setting": "C. albicans ATCC 28838; [4]", "value": 3.12, "unit": "µg/mL"}, {"measurement": "MIC", "setting": "C. albicans ATCC 11651; [5]", "value": 6.25, "unit": "µg/mL"}, {"measurement": "MIC", "setting": "C. albicans KCTC 1940; [6]", "value": 6.25, "unit": "µg/mL"}]}
{"molecule": "COc1ccc2c(Cc3cccc(Oc4ccccc4)c3)c3[n+](cc2c1OC)CCc1cc2c(cc1-3)OCO2", "note": "[compound 58, 13-(3-phenoxybenzyl)berberine chloride]", "values": [{"measurement": "MIC", "setting": "C. albicans OY 003; [1]", "value": 6.25, "unit": "µg/mL"}, {"measurement": "MIC", "setting": "C. albicans OY 019; [2]", "value": 12.5, "unit": "µg/mL"}, {"measurement": "MIC", "setting": "C. albicans IFO 1385; [3]", "value": 25, "unit": "µg/mL"}, {"measurement": "MIC", "setting": "C. albicans ATCC 28838; [4]", "value": 3.12, "unit": "µg/mL"}, {"measurement": "MIC", "setting": "C. albicans ATCC 11651; [5]", "value": 12.5, "unit": "µg/mL"}, {"measurement": "MIC", "setting": "C. albicans KCTC 1940; [6]", "value": 12.5, "unit": "µg/mL"}]}
{"molecule": "C[C@@H]1[C@H](O)[C@@H](C)/C=C/C=C/C=C/C=C/C=C/C=C/C=C/[C@H](O[C@@H]2O[C@H](C)[C@@H](O)[C@H](N)[C@@H]2O)C[C@@H]2O[C@](O)(C[C@@H](O)C[C@@H](O)[C@H](O)CC[C@@H](O)C[C@@H](O)CC(=O)O[C@H]1C)C[C@H](O)[C@H]2C(=O)O", "note": "[Amphotericin B, reference compound]", "values": [{"measurement": "MIC", "setting": "C. albicans ATCC 10231", "value": 1.56, "unit": "µg/mL"}, {"measurement": "MIC", "setting": "C. glulliermendi", "value": 1.56, "unit": "µg/mL"}, {"measurement": "MIC", "setting": "C. albicans OY 003", "value": 0.78, "unit": "µg/mL"}, {"measurement": "MIC", "setting": "C. albicans OY 019", "value": 0.4, "unit": "µg/mL"}, {"measurement": "MIC", "setting": "C. albicans IFO 1385", "value": 1.56, "unit": "µg/mL"}, {"measurement": "MIC", "setting": "C. glabrata", "value": 1.56, "unit": "µg/mL"}, {"measurement": "MIC", "setting": "C. albicans ATCC 28838", "value": 3.12, "unit": "µg/mL"}, {"measurement": "MIC", "setting": "C. krusei", "value": 0.78, "unit": "µg/mL"}, {"measurement": "MIC", "setting": "C. albicans ATCC 11651", "value": 1.56, "unit": "µg/mL"}, {"measurement": "MIC", "setting": "E. floccosum", "value": 12.5, "unit": "µg/mL"}, {"measurement": "MIC", "setting": "C. parapsilosis", "value": 3.12, "unit": "µg/mL"}, {"measurement": "MIC", "setting": "C. albicans U.K.", "value": 3.12, "unit": "µg/mL"}, {"measurement": "MIC", "setting": "C. albicans KCTC 1940", "value": 0.78, "unit": "µg/mL"}]}
{"molecule": "COc1cc2c(cc1OC)-c1c(Cc3ccc(C(C)(C)C)cc3)c3ccc(OC)c(OC)c3c[n+]1CC2", "note": "[compound 77, 13-(4-t-butylbenzyl)palmatine iodide]", "values": [{"measurement": "MIC", "setting": "C. albicans OY 003; [1]", "value": 0.78, "unit": "µg/mL"}, {"measurement": "MIC", "setting": "C. albicans OY 019; [2]", "value": 1.56, "unit": "µg/mL"}, {"measurement": "MIC", "setting": "C. albicans IFO 1385; [3]", "value": 3.12, "unit": "µg/mL"}, {"measurement": "MIC", "setting": "C. albicans ATCC 28838; [4]", "value": 0.78, "unit": "µg/mL"}, {"measurement": "MIC", "setting": "C. albicans ATCC 11651; [5]", "value": 0.78, "unit": "µg/mL"}, {"measurement": "MIC", "setting": "C. albicans KCTC 1940; [6]", "value": 1.56, "unit": "µg/mL"}]}
